Data from ChEMBL document CHEMBL5143627, “Design, synthesis, and biological evaluation of polyphenol derivatives as DYRK1A inhibitors. The discovery of a potentially promising treatment for Multiple Sclerosis” (Bioorg Med Chem Lett, 2022).
pIC50: −log10 of the molar value. The source made the active and inactive calls. The calls are words filed in the database; no cut-off is given here.

What was measured:
[1] = Oral bioavailability in Sprague-Dawley rat at 100 mg/kg; format: ADME, organism-based; settings: in vivo
[2] = biological target: Dual specificity tyrosine-phosphorylation-regulated kinase 1A (Homo sapiens, UniProt Q13627); experiment: Inhibition of DYRK1A (unknown origin) using HT-497 as substrate preincubated with compound followed by substrate addition and measured after 30 mins in the presence of ATP by ELISA analysis
[3] = Bioavailability in CF-1 mouse at 163.8 micromol/kg, IG measured upto 720 mins; format: ADME, organism-based; settings: in vivo, po, 163.8 µmol/kg
Mus musculus [4] = experiment: Anti-inflammatory activity in MOG (35 to 55 residues)-induced experimental autoimmune encephalomyelitis mouse model assessed as reduction in spinal cord inflammation severity score at 15 mg/kg, INH by H&E staining based light microscopic analysis; format: functional, organism-based
Mus musculus [5] = experiment: Anti-inflammatory activity in MOG (35 to 55 residues)-induced experimental autoimmune encephalomyelitis mouse model assessed as reduction in brain IL-17 level at 15 mg/kg, INH; format: functional; parameters: scale not given: the % may be the effect or the level left
Mus musculus [6] = experiment: Anti-inflammatory activity in MOG (35 to 55 residues)-induced experimental autoimmune encephalomyelitis mouse model assessed as reduction in brain IFNgamma level at 15 mg/kg, INH; format: functional; parameters: scale not given: the % may be the effect or the level left
Mus musculus [7] = experiment: Anti-inflammatory activity in MOG (35 to 55 residues)-induced experimental autoimmune encephalomyelitis mouse model assessed as reversal of clinical scores at 15 mg/kg, INH administered twice daily for 25 days; format: functional, organism-based; settings: time 25.0 day
Mus musculus [8] = experiment: Anti-inflammatory activity in MOG (35 to 55 residues)-induced experimental autoimmune encephalomyelitis mouse model assessed as reduction in spinal cord axonal neurodegeneration severity score at 15 mg/kg, INH by Bielschowsky silver staining based light microscopic analysis; format: functional, organism-based
Mus musculus [9] = experiment: Anti-inflammatory activity in MOG (35 to 55 residues)-induced experimental autoimmune encephalomyelitis mouse model assessed as reduction in spinal cord demyelination severity score at 15 mg/kg, INH by Luxol fast blue staining based light microscopic analysis; format: functional, organism-based
Mus musculus [10] = experiment: Anti-inflammatory activity in MOG (35 to 55 residues)-induced experimental autoimmune encephalomyelitis mouse model assessed as reduction in brain TNFalpha level at 15 mg/kg, INH; format: functional, organism-based
Mus musculus [11] = species on record: Mus musculus; experiment: Anti-inflammatory activity in MOG (35 to 55 residues)-induced experimental autoimmune encephalomyelitis mouse model assessed as reduction in spinal cord axonal neurodegeneration severity score by Bielschowsky silver staining based light microscopic analysis; format: functional, organism-based
Mus musculus [12] = species on record: Mus musculus; experiment: Anti-inflammatory activity in MOG (35 to 55 residues)-induced experimental autoimmune encephalomyelitis mouse model assessed as reduction in spinal cord inflammation severity score by H&E staining based light microscopic analysis; format: functional, organism-based
Mus musculus [13] = species on record: Mus musculus; experiment: Anti-inflammatory activity in MOG (35 to 55 residues)-induced experimental autoimmune encephalomyelitis mouse model assessed as reduction in spinal cord demyelination severity score by Luxol fast blue staining based light microscopic analysis; format: functional, organism-based
Mus musculus [14] = experiment: Anti-inflammatory activity in MOG (35 to 55 residues)-induced experimental autoimmune encephalomyelitis mouse model assessed as reversal of clinical scores at 1 mg/kg, INH administered once daily for 25 days; format: functional, organism-based; settings: time 25.0 day

Row | SMILES | pIC50 [2] | further results
1 | O=C(O[C@@H]1Cc2c(O)cc(O)cc2O[C@@H]1c1cc(O)c(O)c(O)c1)c1cc(O)c(O)c(O)c1 [EPIGALOCATECHIN GALLATE] | 6.63 | bioavailability [1]: ≤ 5%; bioavailability [3]: 12%
2 | O=C(O[C@@H]1Cc2ccccc2O[C@H]1c1cc(O)c(O)c(O)c1)c1cc(O)c(O)c(O)c1 (racemic) | 6.37 | 
3 | COc1c(O)cc([C@@H]2Oc3cc(O)cc(O)c3C[C@H]2OC(=O)c2cc(O)c(O)c(O)c2)cc1O | 5.24 | 
4 | O=C(O[C@@H]1Cc2c(O)cc(O)cc2O[C@H]1c1cc(O)c(O)cc1F)c1cc(O)c(O)c(O)c1F | 6.94 | 
5 | O=C(O[C@@H]1Cc2c(O)cc(O)cc2O[C@H]1c1cc(O)c(O)c(O)c1)c1cc(O)c(O)c(F)c1 | 6.84 | 
6 | O=C(O[C@@H]1Cc2c(O)cc(O)cc2O[C@@H]1c1ccc(O)c(O)c1)c1cc(O)c(O)c(O)c1 [EPICATECHIN GALLATE] | 6.28 | 
7 | Cc1c(C(=O)O[C@@H]2Cc3c(O)cc(O)cc3O[C@H]2c2cc(O)c(O)c(O)c2)ccc(O)c1O | 6.26 | 
8 | O=C(O[C@@H]1Cc2c(O)cc(O)cc2O[C@H]1c1cc(O)c(O)c(O)c1)c1cc(O)c(O)cc1O | 6.76 | 
9 | O=C(O[C@@H]1Cc2c(O)cc(O)cc2O[C@H]1c1cc(O)c(O)c(O)c1)c1cc(O)c(O)c(O)c1F | 7.46 | Activity (Mus musculus [4]): Active; Activity (Mus musculus [5]): 79%; Activity (Mus musculus [6]): 90%; Activity (Mus musculus [7]): Active; Activity (Mus musculus [8]): Active; Activity (Mus musculus [9]): Active; Activity (Mus musculus [10]): Active
10 | O=C(O[C@@H]1Cc2c(O)cc(O)cc2O[C@H]1c1ccc(O)c(O)c1)c1cc(O)c(O)c(O)c1F (racemic) | 7.13 | 
11 | Cc1c([C@@H]2Oc3cc(O)cc(O)c3C[C@H]2OC(=O)c2cc(O)c(O)c(O)c2)cc(O)c(O)c1O | 6.53 | 
12 | O=C(O[C@@H]1Cc2c(O)cc(O)cc2O[C@H]1c1cc(O)c(O)c(O)c1)c1ccc(O)c(O)c1 | 6.63 | 
13 | O=C(O[C@@H]1Cc2c(O)cc(O)cc2O[C@H]1c1cc(O)c(O)c(O)c1)c1cc(O)c(O)cc1C(F)(F)F | 6.36 | 
14 | O=C(O[C@@H]1Cc2c(O)cc(O)cc2O[C@H]1c1cc(O)c(O)c(O)c1F)c1cc(O)c(O)c(O)c1 | 7.22 | 
15 | COc1c(O)cc(C(=O)O[C@@H]2Cc3c(O)cc(O)cc3O[C@H]2c2cc(O)c(O)c(O)c2)cc1O | 4.60 | 
16 | O=C(O[C@@H]1Cc2c(O)cc(O)cc2O[C@H]1c1cc(O)c(O)cc1F)c1cc(O)c(O)c(O)c1 | 6.82 | 
17 | O=C(O[C@@H]1Cc2ccccc2C[C@H]1c1cc(O)c(O)c(O)c1)c1cc(O)c(O)c(O)c1 (racemic) | 5.98 | 
18 | O=C(O[C@@H]1Cc2c(O)cc(O)cc2O[C@H]1c1ccc(O)c(O)c1)c1cc(O)c(O)c(O)c1 [(-)-CATECHINGALLATE] | 6.66 | 
19 | CCCCCCCCc1ccc(CCC(N)(CO)CO)cc1 |  | Activity (Mus musculus [11]): Active; Activity (Mus musculus [12]): Active; Activity (Mus musculus [13]): Active; Activity (Mus musculus [14]): Active
20 | O=C(O[C@@H]1Cc2c(O)cc(O)cc2O[C@H]1c1cc(O)c(O)c(O)c1F)c1cc(O)c(O)c(O)c1F | 7.27 | 
21 | COc1cc(C(=O)O[C@@H]2Cc3c(O)cc(O)cc3O[C@@H]2c2cc(O)c(O)c(O)c2)cc(O)c1O | 6.37 | 
22 | O=C(O[C@@H]1Cc2c(O)cc(O)cc2O[C@H]1c1cc(O)c(O)c(O)c1)c1cc(O)c(O)cc1F | 6.97 | 
23 | O=C(O[C@@H]1Cc2c(O)cc(O)cc2O[C@H]1c1cc(O)c(O)c(O)c1)c1ccc(O)c(O)c1O | 6.97 | 
24 | O=C(O[C@@H]1Cc2c(O)cccc2O[C@H]1c1cc(O)c(O)c(O)c1)c1cc(O)c(O)c(O)c1 (racemic) | 6.67 | 
